One experiment concerns Ishikawa. The experiment can be described thus: Antiproliferative activity against human Ishikawa cells at 20 uM incubated for 3 days by MTT assay relative to control. The format is functional. As to conditions: 72 h, time 3 day. Background: Formazan colour is commonly taken as a measure of viable cells.
Experiment [1] concerns the target T1, Estrogen receptor (Homo sapiens) (UniProt P03372).
T1 sequence (whole entry): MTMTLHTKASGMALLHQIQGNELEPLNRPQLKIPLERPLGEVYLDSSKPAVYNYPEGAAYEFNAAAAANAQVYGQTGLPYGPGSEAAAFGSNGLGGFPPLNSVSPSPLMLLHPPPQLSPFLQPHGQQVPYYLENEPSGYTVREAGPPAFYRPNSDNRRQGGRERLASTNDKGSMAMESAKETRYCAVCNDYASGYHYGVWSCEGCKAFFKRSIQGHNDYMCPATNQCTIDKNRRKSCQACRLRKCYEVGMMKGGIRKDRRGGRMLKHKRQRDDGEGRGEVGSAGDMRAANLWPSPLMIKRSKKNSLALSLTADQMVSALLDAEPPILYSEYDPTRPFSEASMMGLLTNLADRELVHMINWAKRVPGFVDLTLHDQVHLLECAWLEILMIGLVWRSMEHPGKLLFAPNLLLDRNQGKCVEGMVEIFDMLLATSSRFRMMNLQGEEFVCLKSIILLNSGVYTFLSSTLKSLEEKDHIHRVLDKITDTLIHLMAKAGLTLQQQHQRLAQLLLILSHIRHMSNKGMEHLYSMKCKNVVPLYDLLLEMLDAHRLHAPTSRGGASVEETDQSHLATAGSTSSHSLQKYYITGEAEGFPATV
Description: Induction of estrogen receptor degradation in estradiol-stimulated human MCF7 cells assessed as decrease in PGR mRNA level incubated for 24 hrs by RT-qPCR analysis. As to conditions: dose 1-10 µM. The format is cell-based. On the technique in general: Real-time PCR tracks product formation cycle by cycle.

The test system of experiment [2] is MCF7. Description: Antiproliferative activity against human MCF7 cells incubated for 5 days by MTT assay. It counts as functional, cell-based. As to conditions: MCF7, 120 h.
Experiment [3] has as its target T1, Estrogen receptor (Homo sapiens). The experiment can be described thus: Induction of estrogen receptor degradation in estradiol-stimulated human MCF7 cells assessed as decrease in TFF1 mRNA level incubated for 24 hrs by RT-qPCR analysis. It counts as cell-based. Conditions: dose 1-10 µM.
The target is the same in experiment [4]. The experiment can be described thus: Induction of estrogen receptor degradation in estradiol-stimulated human MCF7 cells assessed as decrease in GREB1 mRNA level incubated for 24 hrs by RT-qPCR analysis. It counts as cell-based. As to conditions: dose 1-10 µM.
The subject of experiment [5] is MCF7. Description: Induction of ROS production in human MCF7 cells incubated for 3 to 24 hrs by immunofluorescence analysis. It counts as functional, cell-based. As to conditions: time 3-24 hrs.
For experiment [6], the system named is MCF7. Description: Induction of cell cycle arrest at G0/G1 phase in human MCF7 cells at 10 uM incubated for 24 hrs by PI/RNase staining based flow cytometry (reference value: 53.5 +/- 1.96 %). The format is functional. Background: A flow cytometer gives signals particle by particle.

The record followed here is ChEMBL document CHEMBL5584239, “Discovery of novel quinoline scaffold selective estrogen receptor degraders (SERDs) for treatment of ER positive breast cancer with enhanced antiproliferative bioactivity through immunogenic cell death (ICD) effects” (Eur J Med Chem, 2024).

Calls of active or inactive are those of the source. No cut-off for these calls is given here.

The term inhibition denotes the drop in the measured response relative to a control, in per cent. With `CCc1ccccc1C(=O)c1cnc2cc(O)ccc2c1Oc1c(C)cc(/C=C/C(=O)O)cc1C`, in the experiment with Ishikawa, the inhibition at 20 µM turned out to be 11.5%.

By IC50 is commonly meant the point on the concentration scale where inhibition reaches its midpoint. Turning to `CCc1ccccc1C(=O)c1cnc2cc(O)ccc2c1Oc1ccc(/C=C/C(=O)O)cc1C`, the inhibition at 20 µM in the experiment on Ishikawa is -6.14%. Moreover, the Activity entry in experiment [1], in experiment [3] and in experiment [4] was “Dose-Dependent Effect” in each case. Half-maximal inhibition in the experiment with MCF7 [2] (IC50) required 450 nM.

`CCc1ccccc1C(=O)c1cnc2cc(O)ccc2c1Oc1ccc(/C=C/C(=O)O)cc1F`: the inhibition at 20 µM with Ishikawa came out at 4.11%. The IC50 in the experiment with MCF7 [2] came to 670 nM.

Regarding `Cc1cccc(C)c1C(=O)c1cnc2cc(O)ccc2c1Oc1ccc(/C=C/C(=O)O)cc1`, in the experiment on Ishikawa, the inhibition at 20 µM worked out at 23.1%. In addition, in the experiment with MCF7 [2], the IC50 stood at 930 nM.

Turning to `CC(C)c1ccccc1C(=O)c1cnc2cc(O)ccc2c1Oc1ccc(/C=C/C(=O)O)cc1`, in the experiment on Ishikawa, the inhibition at 20 µM came out at 23.8%. Besides, 580 nM corresponded to half-maximal inhibition in the experiment on MCF7 [2] (IC50).

As for `O=C(O)/C=C/c1ccc(Oc2c(C(=O)c3ccc(C(F)(F)F)cc3)cnc3cc(O)ccc23)cc1`, in the experiment on Ishikawa, the inhibition at 20 µM was -4.35%. This compound also returned an IC50 in the experiment with MCF7 [2] of 690 nM.

Take `O=C(O)/C=C/c1ccc(Oc2c(C(=O)c3ccccc3C(F)(F)F)cnc3cc(O)ccc23)cc1`: the inhibition at 20 µM with Ishikawa is 27.5%. For the same compound, in the experiment with MCF7 [2], inhibition was half-maximal at 370 nM (IC50).

As to `CCc1ccccc1C(=O)c1cnc2cc(O)ccc2c1Oc1ccc(/C=C/C(=O)O)c(C)c1`, in the experiment on Ishikawa, the inhibition at 20 µM is 13.4%. The compound also displayed an IC50 in the experiment with MCF7 [2] of 3570 nM.

Consider `C[C@]12CC[C@@H]3c4ccc(O)cc4CC[C@H]3[C@@H]1CC[C@@H]2O`, for which the outcome with MCF7 [5] was inactive.

As to `O=C(O)/C=C/c1ccc(Oc2c(C(=O)c3ccc(F)cc3)cnc3cc(O)ccc23)cc1`, the inhibition at 20 µM in the experiment with Ishikawa is 12.5%. This compound returned an IC50 in the experiment on MCF7 [2] of 4870 nM.

Consider `CCc1ccccc1C(=O)c1cnc2cc(O)ccc2c1Oc1cc(C)c(/C=C/C(=O)O)c(C)c1`, for which the inhibition at 20 µM in the experiment on Ishikawa was found to be 17.3%. Moreover, the IC50 in the experiment with MCF7 [2] is 590 nM.

Consider `Cc1cc(F)ccc1C(=O)c1cnc2cc(O)ccc2c1Oc1ccc(/C=C/C(=O)O)cc1`, for which, in the experiment on Ishikawa, the inhibition at 20 µM is 15.1%. In the experiment on MCF7 [2], this compound had an IC50 of 420 nM.

Regarding `O=C(O)/C=C/c1ccc(Oc2c(C(=O)c3ccccc3)cnc3cc(O)ccc23)cc1`, in the experiment on Ishikawa, the inhibition at 20 µM came to 11.8%. This compound also registered an IC50 in the experiment with MCF7 [2] of 1670 nM.

Regarding `Cc1cc(Cl)ccc1C(=O)c1cnc2cc(O)ccc2c1Oc1ccc(/C=C/C(=O)O)cc1`, the inhibition at 20 µM with Ishikawa is 24.9%. Besides, the IC50 with MCF7 [2] worked out at 370 nM.

As to `Cc1cc(C)cc(C(=O)c2cnc3cc(O)ccc3c2Oc2ccc(/C=C/C(=O)O)cc2)c1`, the inhibition at 20 µM with Ishikawa came to 30.9%. The compound also came in with an IC50 in the experiment with MCF7 [2] of 4800 nM.

As to `CC/C(=C(\c1ccccc1)c1ccc(OCCN(C)C)cc1)c1ccccc1` [TAMOXIFEN], the inhibition at 20 µM in the experiment with Ishikawa is 86.5%. Also, in the experiment with MCF7 [6], the Activity is 67.6%. This compound also registered an IC50 with MCF7 [2] of 1560 nM. In addition, in the experiment on MCF7 [5], the result was inactive.

Consider `O=C(O)/C=C/c1ccc(Oc2c(C(=O)c3ccc(OC(F)(F)F)cc3)cnc3cc(O)ccc23)cc1`, for which, in the experiment on Ishikawa, the inhibition at 20 µM amounted to 20.4%. The IC50 in the experiment with MCF7 [2] is 1360 nM.

Regarding `O=C(O)/C=C/c1ccc(Oc2c(C(=O)c3cccc(F)c3)cnc3cc(O)ccc23)cc1`, in the experiment with Ishikawa, the inhibition at 20 µM amounted to 26.4%. The IC50 in the experiment with MCF7 [2] turned out to be 2420 nM.

As to `Cc1ccc(C(=O)c2cnc3cc(O)ccc3c2Oc2ccc(/C=C/C(=O)O)cc2)c(C)c1`, the inhibition at 20 µM in the experiment on Ishikawa was -0.04%. Moreover, the IC50 with MCF7 [2] was 450 nM.

With `O=C(O)/C=C/c1ccc(Oc2c(C(=O)c3cccs3)cnc3cc(O)ccc23)cc1`, the inhibition at 20 µM in the experiment with Ishikawa stood at 10.4%. In the experiment with MCF7 [2], this compound came in with an IC50 of 7170 nM.

`CCc1ccccc1C(=O)c1cnc2cc(O)ccc2c1Oc1ccc(/C=C/C(=O)O)cc1OC`: in the experiment with Ishikawa, the inhibition at 20 µM amounted to 5.03%. In the experiment on MCF7 [2], this compound returned an IC50 of 14000 nM.

Regarding `COc1ccc(C(=O)c2cnc3cc(O)ccc3c2Oc2ccc(/C=C/C(=O)O)cc2)cc1`, the inhibition at 20 µM in the experiment with Ishikawa stood at 61.2%. The same compound yielded an IC50 with MCF7 [2] of 3090 nM.

As to `Cc1cc(F)cc(C)c1C(=O)c1cnc2cc(O)ccc2c1Oc1ccc(/C=C/C(=O)O)cc1`, the inhibition at 20 µM in the experiment with Ishikawa came to 35.8%. In addition, half-maximal inhibition with MCF7 [2] (IC50) was put at 410 nM.

On to `O=C(O)/C=C/c1ccc(Oc2c(C(=O)c3ccc4occc4c3)cnc3cc(O)ccc23)cc1`, for which the inhibition at 20 µM in the experiment with Ishikawa worked out at 13.3%. Also, the IC50 in the experiment with MCF7 [2] turned out to be 1470 nM.
